The NIST ThermoML archive (doi:10.1021/je400004j)
Numbers after ± are expanded uncertainties.

assay: not given; conditions: 298.15 K, Ring tensiometer

| SMILES | surface tension liquid-gas [mN/m] |
| --- | --- |
| CCOP(=O)([O-])OCC.CCn1cc[n+](CC)c1 [1,3-diethyl-1H-imidazol-3-ium diethyl phosphate] | 35.5 ± 0.5 |
| COP(=O)([O-])OC.Cn1cc[n+](C)c1 [1,3-dimethylimidazolium dimethylphosphate] | 48.4 ± 0.6 |
| CCCCn1cc[n+](CC)c1.CCOP(=O)([O-])OCC [1-butyl-3-ethyl-1H-imidazol-3-ium diethyl phosphate] | 32.2 ± 0.5 |
| CCCCn1cc[n+](C)c1.COP(=O)([O-])OC [1-butyl-3-methyl-1H-imidazolium dimethylphosphate] | 38 ± 0.5 |

same assay, conditions: 298.15 K; 101.33 kPa; Liquid; Vibrating tube method

| SMILES | mass density [kg/m3] |
| --- | --- |
| CCOP(=O)([O-])OCC.CCn1cc[n+](CC)c1 [1,3-diethyl-1H-imidazol-3-ium diethyl phosphate] | 1125.96 ± 0.15 |
| COP(=O)([O-])OC.Cn1cc[n+](C)c1 [1,3-dimethylimidazolium dimethylphosphate] | 1252.6 ± 0.22 |
| CCCCn1cc[n+](CC)c1.CCOP(=O)([O-])OCC [1-butyl-3-ethyl-1H-imidazol-3-ium diethyl phosphate] | 1083.21 ± 0.1 |

assay: xn = mol fraction of the nth substance listed; conditions: 298.15 K, Ring tensiometer, x1 = 0.02

| SMILES | surface tension liquid-gas [mN/m] |
| --- | --- |
| CCOP(=O)([O-])OCC.CCn1cc[n+](C)c1 [1-ethyl-3-methylimidazolium diethyl phosphate] + O | 49.7 ± 1.4 |

same assay, conditions: 298.15 K, Ring tensiometer, x1 = 0.04

| SMILES | surface tension liquid-gas [mN/m] |
| --- | --- |
| CCOP(=O)([O-])OCC.CCn1cc[n+](C)c1 [1-ethyl-3-methylimidazolium diethyl phosphate] + O | 46.5 ± 0.6 |

same assay, conditions: 298.15 K, Ring tensiometer, x1 = 0.08

| SMILES | surface tension liquid-gas [mN/m] |
| --- | --- |
| CCOP(=O)([O-])OCC.CCn1cc[n+](C)c1 [1-ethyl-3-methylimidazolium diethyl phosphate] + O | 44.2 ± 0.6 |

same assay, conditions: 298.15 K, Ring tensiometer, x1 = 0.1

| SMILES | surface tension liquid-gas [mN/m] |
| --- | --- |
| CCCCn1cc[n+](C)c1.COP(=O)([O-])OC [1-butyl-3-methyl-1H-imidazolium dimethylphosphate] + O | 42.1 ± 0.6 |
| CCCCOP(=O)([O-])OCCCC.CCCCn1cc[n+](C)c1 [1-butyl-3-methylimidazolium dibutyl phosphate] + CCO | 22.5 ± 0.3 |
| CCCCOP(=O)([O-])OCCCC.CCCCn1cc[n+](C)c1 [1-butyl-3-methylimidazolium dibutyl phosphate] + CO | 26.4 ± 0.4 |
| CCCCOP(=O)([O-])OCCCC.CCCCn1cc[n+](C)c1 [1-butyl-3-methylimidazolium dibutyl phosphate] + O | 28.2 ± 0.6 |
| CCOP(=O)([O-])OCC.CCn1cc[n+](C)c1 [1-ethyl-3-methylimidazolium diethyl phosphate] + CCO | 22.6 ± 0.3 |
| CCOP(=O)([O-])OCC.CCn1cc[n+](C)c1 [1-ethyl-3-methylimidazolium diethyl phosphate] + CO | 26.4 ± 0.4 |
| CCOP(=O)([O-])OCC.CCn1cc[n+](C)c1 [1-ethyl-3-methylimidazolium diethyl phosphate] + O | 42.6 ± 0.6 |
| CCn1cc[n+](C)c1.COP(=O)([O-])OC [1-ethyl-3-methylimidazolium dimethylphosphate] + CCO | 22.9 ± 0.4 |
| CCn1cc[n+](C)c1.COP(=O)([O-])OC [1-ethyl-3-methylimidazolium dimethylphosphate] + CO | 26.7 ± 0.4 |
| CCn1cc[n+](C)c1.COP(=O)([O-])OC [1-ethyl-3-methylimidazolium dimethylphosphate] + O | 48.9 ± 0.69 |

same assay, conditions: 298.15 K, Ring tensiometer, x1 = 0.12

| SMILES | surface tension liquid-gas [mN/m] |
| --- | --- |
| CCOP(=O)([O-])OCC.CCn1cc[n+](C)c1 [1-ethyl-3-methylimidazolium diethyl phosphate] + O | 41.4 ± 0.6 |

same assay, conditions: 298.15 K, Ring tensiometer, x1 = 0.14

| SMILES | surface tension liquid-gas [mN/m] |
| --- | --- |
| CCOP(=O)([O-])OCC.CCn1cc[n+](C)c1 [1-ethyl-3-methylimidazolium diethyl phosphate] + O | 40.7 ± 0.6 |

same assay, conditions: 298.15 K, Ring tensiometer, x1 = 0.2

| SMILES | surface tension liquid-gas [mN/m] |
| --- | --- |
| CCCCn1cc[n+](C)c1.COP(=O)([O-])OC [1-butyl-3-methyl-1H-imidazolium dimethylphosphate] + O | 40.9 ± 0.6 |
| CCCCOP(=O)([O-])OCCCC.CCCCn1cc[n+](C)c1 [1-butyl-3-methylimidazolium dibutyl phosphate] + CCO | 23.5 ± 0.4 |
| CCCCOP(=O)([O-])OCCCC.CCCCn1cc[n+](C)c1 [1-butyl-3-methylimidazolium dibutyl phosphate] + CO | 27.5 ± 0.4 |
| CCCCOP(=O)([O-])OCCCC.CCCCn1cc[n+](C)c1 [1-butyl-3-methylimidazolium dibutyl phosphate] + O | 28.9 ± 0.4 |
| CCOP(=O)([O-])OCC.CCn1cc[n+](C)c1 [1-ethyl-3-methylimidazolium diethyl phosphate] + CCO | 23.6 ± 0.4 |
| CCOP(=O)([O-])OCC.CCn1cc[n+](C)c1 [1-ethyl-3-methylimidazolium diethyl phosphate] + CO | 28.9 ± 0.4 |
| CCOP(=O)([O-])OCC.CCn1cc[n+](C)c1 [1-ethyl-3-methylimidazolium diethyl phosphate] + O | 38.9 ± 0.5 |
| CCn1cc[n+](C)c1.COP(=O)([O-])OC [1-ethyl-3-methylimidazolium dimethylphosphate] + CCO | 24 ± 0.4 |
| CCn1cc[n+](C)c1.COP(=O)([O-])OC [1-ethyl-3-methylimidazolium dimethylphosphate] + CO | 29.5 ± 0.4 |
| CCn1cc[n+](C)c1.COP(=O)([O-])OC [1-ethyl-3-methylimidazolium dimethylphosphate] + O | 47 ± 0.63 |

same assay, conditions: 298.15 K, Ring tensiometer, x1 = 0.3

| SMILES | surface tension liquid-gas [mN/m] |
| --- | --- |
| CCCCn1cc[n+](C)c1.COP(=O)([O-])OC [1-butyl-3-methyl-1H-imidazolium dimethylphosphate] + O | 40.2 ± 0.5 |
| CCCCOP(=O)([O-])OCCCC.CCCCn1cc[n+](C)c1 [1-butyl-3-methylimidazolium dibutyl phosphate] + CCO | 24.5 ± 0.4 |
| CCCCOP(=O)([O-])OCCCC.CCCCn1cc[n+](C)c1 [1-butyl-3-methylimidazolium dibutyl phosphate] + CO | 28.1 ± 0.4 |
| CCCCOP(=O)([O-])OCCCC.CCCCn1cc[n+](C)c1 [1-butyl-3-methylimidazolium dibutyl phosphate] + O | 29 ± 0.4 |
| CCOP(=O)([O-])OCC.CCn1cc[n+](C)c1 [1-ethyl-3-methylimidazolium diethyl phosphate] + CCO | 25 ± 0.4 |
| CCOP(=O)([O-])OCC.CCn1cc[n+](C)c1 [1-ethyl-3-methylimidazolium diethyl phosphate] + CO | 30.4 ± 0.4 |
| CCOP(=O)([O-])OCC.CCn1cc[n+](C)c1 [1-ethyl-3-methylimidazolium diethyl phosphate] + O | 38 ± 0.5 |
| CCn1cc[n+](C)c1.COP(=O)([O-])OC [1-ethyl-3-methylimidazolium dimethylphosphate] + CCO | 25.5 ± 0.4 |
| CCn1cc[n+](C)c1.COP(=O)([O-])OC [1-ethyl-3-methylimidazolium dimethylphosphate] + CO | 31.8 ± 0.5 |
| CCn1cc[n+](C)c1.COP(=O)([O-])OC [1-ethyl-3-methylimidazolium dimethylphosphate] + O | 46.4 ± 0.62 |

same assay, conditions: 298.15 K, Ring tensiometer, x1 = 0.4

| SMILES | surface tension liquid-gas [mN/m] |
| --- | --- |
| CCCCn1cc[n+](C)c1.COP(=O)([O-])OC [1-butyl-3-methyl-1H-imidazolium dimethylphosphate] + O | 39.4 ± 0.5 |
| CCCCOP(=O)([O-])OCCCC.CCCCn1cc[n+](C)c1 [1-butyl-3-methylimidazolium dibutyl phosphate] + CCO | 25.9 ± 0.4 |
| CCCCOP(=O)([O-])OCCCC.CCCCn1cc[n+](C)c1 [1-butyl-3-methylimidazolium dibutyl phosphate] + CO | 28.5 ± 0.4 |
| CCCCOP(=O)([O-])OCCCC.CCCCn1cc[n+](C)c1 [1-butyl-3-methylimidazolium dibutyl phosphate] + O | 29.1 ± 0.4 |
| CCOP(=O)([O-])OCC.CCn1cc[n+](C)c1 [1-ethyl-3-methylimidazolium diethyl phosphate] + CCO | 26.6 ± 0.4 |
| CCOP(=O)([O-])OCC.CCn1cc[n+](C)c1 [1-ethyl-3-methylimidazolium diethyl phosphate] + CO | 31.9 ± 0.5 |
| CCOP(=O)([O-])OCC.CCn1cc[n+](C)c1 [1-ethyl-3-methylimidazolium diethyl phosphate] + O | 37.8 ± 0.5 |
| CCn1cc[n+](C)c1.COP(=O)([O-])OC [1-ethyl-3-methylimidazolium dimethylphosphate] + CCO | 27.5 ± 0.4 |
| CCn1cc[n+](C)c1.COP(=O)([O-])OC [1-ethyl-3-methylimidazolium dimethylphosphate] + CO | 33.7 ± 0.5 |
| CCn1cc[n+](C)c1.COP(=O)([O-])OC [1-ethyl-3-methylimidazolium dimethylphosphate] + O | 46.2 ± 0.62 |

same assay, conditions: 298.15 K, Ring tensiometer, x1 = 0.5

| SMILES | surface tension liquid-gas [mN/m] |
| --- | --- |
| CCCCn1cc[n+](C)c1.COP(=O)([O-])OC [1-butyl-3-methyl-1H-imidazolium dimethylphosphate] + O | 38.8 ± 0.5 |
| CCCCOP(=O)([O-])OCCCC.CCCCn1cc[n+](C)c1 [1-butyl-3-methylimidazolium dibutyl phosphate] + CCO | 26.6 ± 0.4 |
| CCCCOP(=O)([O-])OCCCC.CCCCn1cc[n+](C)c1 [1-butyl-3-methylimidazolium dibutyl phosphate] + CO | 28.8 ± 0.4 |
| CCCCOP(=O)([O-])OCCCC.CCCCn1cc[n+](C)c1 [1-butyl-3-methylimidazolium dibutyl phosphate] + O | 29.2 ± 0.4 |
| CCOP(=O)([O-])OCC.CCn1cc[n+](C)c1 [1-ethyl-3-methylimidazolium diethyl phosphate] + CCO | 28.2 ± 0.4 |
| CCOP(=O)([O-])OCC.CCn1cc[n+](C)c1 [1-ethyl-3-methylimidazolium diethyl phosphate] + CO | 33.5 ± 0.5 |
| CCOP(=O)([O-])OCC.CCn1cc[n+](C)c1 [1-ethyl-3-methylimidazolium diethyl phosphate] + O | 37.5 ± 0.5 |
| CCn1cc[n+](C)c1.COP(=O)([O-])OC [1-ethyl-3-methylimidazolium dimethylphosphate] + CCO | 29.5 ± 0.4 |
| CCn1cc[n+](C)c1.COP(=O)([O-])OC [1-ethyl-3-methylimidazolium dimethylphosphate] + CO | 35.6 ± 0.5 |
| CCn1cc[n+](C)c1.COP(=O)([O-])OC [1-ethyl-3-methylimidazolium dimethylphosphate] + O | 45.1 ± 0.61 |

same assay, conditions: 298.15 K, Ring tensiometer, x1 = 0.6

| SMILES | surface tension liquid-gas [mN/m] |
| --- | --- |
| CCCCn1cc[n+](C)c1.COP(=O)([O-])OC [1-butyl-3-methyl-1H-imidazolium dimethylphosphate] + O | 38.3 ± 0.5 |
| CCCCOP(=O)([O-])OCCCC.CCCCn1cc[n+](C)c1 [1-butyl-3-methylimidazolium dibutyl phosphate] + CCO | 27.3 ± 0.4 |
| CCCCOP(=O)([O-])OCCCC.CCCCn1cc[n+](C)c1 [1-butyl-3-methylimidazolium dibutyl phosphate] + CO | 28.9 ± 0.4 |
| CCCCOP(=O)([O-])OCCCC.CCCCn1cc[n+](C)c1 [1-butyl-3-methylimidazolium dibutyl phosphate] + O | 29.3 ± 0.4 |
